Experiments:
[1] = tested on: Bacillus subtilis NBRC 3134^T; assay: Heat resistance test A, antibacterial activity as index; assay type: cell-based; conditions: 1000 γ solution, pH adjusted to 9, 98° C. for 5 min; FIG. 4-1
Method: (§1) Examples of a typical test for measuring the stability of a compound include pH stability test, as well as heat resistance test, and storage test. This information is also regarded as important in evaluating the compound as described above. Using the sample of HK-1 prepared in the above “3. Antibacterial activity test in changing pH”, experiments were carried out to examine whether the compound is stable or not using G. stearothermophilus and B. subtilis guided by the antibacterial activity as the index.
(§2) Three hundred (300) μL of the 1000 γ HK-1 solution (pH 9, and pH not adjusted) prepared in the above “3. Antibacterial activity test in changing pH” was dispensed into a 1 mL microtube. The opening of the tube was closed hermetically with parafilm and heated in the bath at 98° C. for 5 min. An assay was performed using the culture medium for assaying antibacterial activity prepared in “3. Antibacterial activity test in changing pH” above.

[2] = tested on: Geobacillus stearothermophilus ATCC 7953; assay: as above; assay type: cell-based; conditions: 1000 γ solution, pH adjusted to 9, 98° C. for 5 min; FIG. 4-1
Method: as §1, §2

[3] = pH stability by HPLC analysis; assay type: physicochemical; conditions: methanol solution 1000 γ
Method: Into a 50-mL Falcon tube, 20 mg of HK-1 was weighed out using an electric balance, and therein 20 mL of methanol (1000 γ) was added followed by gentle stirring. Each 3.3 mL was aliquoted to totally two 15-mL Falcon tubes. To one of them 20 μL of 1 N sodium hydroxide was added followed by gentle stirring. The pH was tested with a pH test paper. Ten (10) μL of each sample was subjected to HPLC. The HPLC analysis conditions are as follows. Column: CAPCELL PAK Cis 5 μm, 4.6 mm 1. D×150 mm Mobile phase A: 0.1% aqueous solution of trifluoroacetic acid Mobile phase B: acetonitrile Temperature of thermostatic chamber for column: 40° C. Flow velocity: 1 mL/min UV: 254 nm Elution method: concentration gradient • 0 min to 18 min, B concentration 50% to 100% • 18.1 min to 23 min, B concentration 100% • 23.1 min to 25 min, B concentration 50%

[4] = tested on: Bacillus subtilis NBRC 3134^T; assay: Heat resistance test B (storage), antibacterial activity as index; assay type: cell-based; conditions: FIG. 4-2
Method: as §1
One (1) mL each of two samples prepared in the above “3. Antibacterial activity test in changing pH” was dispensed into two 1-mL micro tubes. The openings of total four tubes were closed hermetically with parafilm, and each one is shielded with an aluminum foil, and stored in a freezer set at −28° C., or an incubator set at 28° C. and 50° C. Each sample was assayed 1, 3, 6, 12, and 24 days after the initiation of the storage using the culture medium for assaying antibacterial activity prepared in “3. Antibacterial activity test in changing pH” above.

SMILES: COc1cc(OOc2cc(OC)c3c(c2-c2c(O)c(Cl)c(C)c4c2C(O)c2c(Cl)c(O)cc(O)c2C4=O)C(OC2OC(C)C(O)C2O)c2c(Cl)c(OC)c(Cl)c(C)c2C3=O)c(-c2c(O)c(Cl)c(C)c3c2C(O)c2c(Cl)c(O)cc(O)c2C3=O)c2c1C(=O)c1c(C)c(Cl)c(OC)c(Cl)c1C2OC1OC(C)C(O)C1O (stereo not drawn) [HK-1]
- antibacterial effect after heating at high temperature [1]: the antibacterial effect was not lost
- antibacterial effect after heating at high temperature [2]: the antibacterial effect was not lost
- pH stability (degradation peak in HPLC analysis) ([3]; pH adjusted to 9 with 1 N sodium hydroxide): stable with no recognizable degradation peak
- pH stability (degradation peak in HPLC analysis) ([3]; pH not adjusted): stable with no recognizable degradation peak
- difference in antibacterial activity due to the storage temperature ([4]; pH not adjusted, storage at −28° C., 28° C., 50° C., 1 to 24 days): no significant difference
- antibacterial activity after storage ([4]; two samples (pH 9, pH not adjusted), stored at −28° C., 28° C. and 50° C., after 24 days): not lost
